Molecules are shown by their SMILES. Where only a bound is given, the exact number is not on record here.

Series [1] deals with Human immunodeficiency virus 1. As to the kind of experiment: Antiviral activity against wild type HIV-1 3B infected in human MT4 cells assessed as reduction of virus-induced cytopathic effect after 5 days by MTT assay. In kind it is functional, organism-based. Conditions: Human immunodeficiency virus 1, 3B, MT4, 120 h.
Series [2] has as its system Human immunodeficiency virus 1. The experiment in a line: Antiviral activity against HIV-1 RES056 harboring reverse transcriptase K103N/Y181C double mutant infected in human MT4 cells assessed as reduction of virus-induced cytopathic effect after 5 days by MTT assay. In kind it is functional, organism-based. The following applies: Human immunodeficiency virus 1, RES056, MT4, 120 h.

Series [3] has as its system Human immunodeficiency virus 2. As to the kind of experiment: Antiviral activity against wild type HIV-2 ROD infected in human MT4 cells assessed as reduction of virus-induced cytopathic effect after 5 days by MTT assay. In kind it is functional, organism-based. The following applies: Human immunodeficiency virus 2, ISOLATE ROD, MT4, 120 h.
A short description of series [4]: Cytotoxicity against human MT4 cells after 5 days MTT assay. In kind it is cell-based.
A short description of series [5]: Selectivity index, ratio of CC50 for human MT4 cells to EC50 for wild type HIV-1 3B infected in human MT4 cells. In kind it is toxicity, cell-based. Conditions: read-out: Ratio CC50/EC50.
Series [6] concerns the target Human immunodeficiency virus type 1 reverse transcriptase (Human immunodeficiency virus 1, UniProt Q72547). As to the kind of experiment: Inhibition of wild type HIV1 p66/p51 reverse transcriptase by spectrofluorometry.

Regarding `Cc1cc(OCC(=O)Nc2ccc(F)cc2)nc(Nc2ccc(C#N)cc2)n1`, the EC50 in series [1], in series [2] and in series [3] was more than 331 µM each time. This compound came in with a cytotoxic concentration (CC50) at 120 h in series [4] of more than 331 µM.
Regarding `Cc1cc(OCC(=O)Nc2ccc(Cl)cc2)nc(Nc2ccc(C#N)cc2)n1`, the results for the 50% effective concentration (EC50) in series [1], in series [2] and in series [3] were more than 2.63 µM, 2.63 µM and 2.63 µM, respectively. Moreover, the selectivity ratio in series [5] was less than 1. This compound returned a CC50 at 120 h in series [4] of 2.63 µM.
Consider `Cc1cc(OCC(=O)Nc2ccc(Br)cc2)nc(Nc2ccc(C#N)cc2)n1`, for which the 50% effective concentration (EC50) is more than 0.93 µM in series [1] and 0.93 µM in series [3]. Besides, in series [5], the selectivity ratio was less than 1. The midpoint of cytotoxicity in series [4], the CC50 at 120 h, lay at 0.93 µM.
Regarding `Cc1cnc(Nc2ccc(C#N)cc2)nc1OCC(=O)Nc1ccc(Br)cc1`, the half-maximal effective concentration (EC50) in series [1], in series [2] and in series [3] was more than 34.7 µM each time. For the same compound, the selectivity ratio in series [5] was less than 1. The same compound had a 50% cytotoxic concentration (CC50) at 120 h in series [4] of 34.7 µM.
For `N#Cc1ccc(Nc2nccc(OCC(=O)Nc3ccc([N+](=O)[O-])cc3)n2)cc1`, the half-maximal effective concentration (EC50) in series [1], in series [2] and in series [3] was more than 320 µM throughout. The compound also displayed a cytotoxic concentration (CC50) at 120 h in series [4] of more than 320 µM.
For the compound `N#Cc1ccc(Nc2nccc(OCC(=O)Nc3ccc(F)cc3)n2)cc1`, the EC50 in series [1], in series [2] and in series [3] was more than 344 µM throughout. Also, the CC50 at 120 h in series [4] is more than 344 µM.
`Cc1cc(OCC(=O)Nc2cccc(Cl)c2)nc(Nc2ccc(C#N)cc2)n1`: the concentration giving a half-maximal response (EC50) was 0.17 µM in series [1], more than 32.1 µM in series [2] and more than 32.1 µM in series [3]. Moreover, the selectivity ratio in series [5] is 197. In series [6], this compound registered an IC50 of 0.54 µM. The midpoint of cytotoxicity in series [4], the CC50 at 120 h, lay at 32.1 µM.
`Cc1cc(OCC(=O)Nc2ccc(C#N)cc2F)nc(Nc2ccc(C#N)cc2)n1`: the concentration for a half-maximal effect (EC50) in series [1] and in series [3] was more than 311 µM in each case. Also, the CC50 at 120 h in series [4] was more than 311 µM.
For the compound `N#Cc1ccc(Nc2nccc(OCC(=O)Nc3ccc(C#N)cc3F)n2)cc1`, the EC50 in series [1], in series [2] and in series [3] was more than 322 µM in each case. The compound further came in with a CC50 at 120 h in series [4] of more than 322 µM.
In the case of `N#Cc1ccc(Nc2nccc(OCC(=O)Nc3ccc(Cl)cc3)n2)cc1`, the half-maximal effective concentration (EC50) was 19.2 µM in series [1], more than 162 µM in series [2] and 162 µM in series [3]. The selectivity ratio in series [5] was found to be 8. In series [6], the IC50 was 26.9 µM. Moreover, the cytotoxic concentration (CC50) at 120 h in series [4] was found to be 162 µM.
`Cc1cnc(Nc2ccc(C#N)cc2)nc1OCC(=O)Nc1ccccc1F`: the half-maximal effective concentration (EC50) was 0.013 µM in series [1], more than 331 µM in series [2] and more than 331 µM in series [3]. Also, in series [5], the selectivity ratio was more than 25200. In series [6], this compound came in with an IC50 of 0.083 µM. In series [4], this compound showed a 50% cytotoxic concentration (CC50) at 120 h of more than 331 µM.
For the compound `Cc1cc(OCC(=O)Nc2ccc([N+](=O)[O-])cc2)nc(Nc2ccc(C#N)cc2)n1`, the EC50 in series [1] and in series [3] was more than 309 µM in each case. The compound also registered a CC50 at 120 h in series [4] of more than 309 µM.
Consider `Cc1cnc(Nc2ccc(C#N)cc2)nc1OCC(=O)Nc1cccc(Cl)c1`, for which the results for the EC50 in series [1], in series [2] and in series [3] were 0.05 µM, more than 144 µM and more than 144 µM, respectively. The selectivity ratio in series [5] was 2890. In addition, the IC50 in series [6] is 0.16 µM. The CC50 at 120 h in series [4] turned out to be 144 µM.
Consider `COc1ccc(NC(=O)COc2ccnc(Nc3ccc(C#N)cc3)n2)cc1`, for which the EC50 is 49.1 µM in series [1], more than 333 µM in series [2] and more than 333 µM in series [3]. Further, the selectivity ratio in series [5] is more than 7. Moreover, in series [6], the midpoint of inhibition, the IC50, lay at 24.6 µM. Further, the CC50 at 120 h in series [4] was more than 333 µM.
Take `Cc1cnc(Nc2ccc(C#N)cc2)nc1OCC(=O)Nc1ccc(C#N)cc1`: the EC50 in series [1] is 2.42 µM; in series [2], more than 48.4 µM; in series [3], more than 48.4 µM. Moreover, in series [5], the selectivity ratio was not below 20. Moreover, half-maximal inhibition in series [6] (IC50) required 17.6 µM. The compound further came in with a 50% cytotoxic concentration (CC50) at 120 h in series [4] not below 48.4 µM.
In the case of `Cc1cnc(Nc2ccc(C#N)cc2)nc1OCC(=O)Nc1ccc(Cl)cc1`, the EC50 in series [1], in series [2] and in series [3] was more than 317 µM throughout. This compound also showed a 50% cytotoxic concentration (CC50) at 120 h in series [4] of more than 317 µM.
With `N#Cc1ccc(NC(=O)COc2ccnc(Nc3ccc(C#N)cc3)n2)cc1`, the EC50 in series [1] was not below 35.1 µM; in series [2], more than 338 µM; in series [3] it was more than 338 µM. For the same compound, the half-inhibitory concentration (IC50) in series [6] was 23.9 µM. In series [4], this compound gave a half-maximal cytotoxic concentration (CC50) at 120 h of more than 338 µM.
As for `Cc1cnc(Nc2ccc(C#N)cc2)nc1OCC(=O)Nc1ccc(C#N)cc1F`, the concentration giving a half-maximal response (EC50) in series [1] is 3.03 µM; in series [2], more than 311 µM; in series [3] it was more than 311 µM. The selectivity ratio in series [5] is more than 102. This compound also registered an IC50 in series [6] of 12 µM. In series [4], this compound came in with a cytotoxic concentration (CC50) at 120 h of more than 311 µM.
For the compound `Cc1cnc(Nc2ccc(C#N)cc2)nc1OCC(=O)Nc1ccc(F)cc1`, the 50% effective concentration (EC50) in series [1] is not below 34.5 µM; in series [2], more than 331 µM; in series [3] it was more than 331 µM. The same compound displayed an IC50 in series [6] of 18.9 µM. The compound further showed a half-maximal cytotoxic concentration (CC50) at 120 h in series [4] of more than 331 µM.
Consider `N#Cc1ccc(Nc2nccc(OCC(=O)Nc3cccc(Cl)c3)n2)cc1`, for which the concentration giving a half-maximal response (EC50) in series [1] was 0.035 µM; in series [2] it was more than 329 µM; in series [3], more than 329 µM. In addition, in series [5], the selectivity ratio was more than 9340. In series [6], this compound had an IC50 of 0.12 µM. The same compound displayed a CC50 at 120 h in series [4] of more than 329 µM.
Consider `Cc1cc(C#N)cc(C)c1Oc1nc(Nc2ccc(C#N)cc2)nc(N)c1Br` [ETRAVIRINE], for which the values for the half-maximal effective concentration (EC50) in series [1], in series [2] and in series [3] were 0.0017 µM, 0.013 µM and more than 13.3 µM, respectively. Also, the selectivity ratio in series [5] was 7680. In addition, the CC50 at 120 h in series [4] stood at 13.3 µM.
With `Nc1ccn([C@@H]2CS[C@H](CO)O2)c(=O)n1` [LAMIVUDINE], the selectivity ratio in series [5] is more than 39. The CC50 at 120 h in series [4] is more than 87.2 µM.
For `Cc1cnc(Nc2ccc(C#N)cc2)nc1OCC(=O)Nc1ccccc1Cl`, the values for the EC50 in series [1], in series [2] and in series [3] were 0.017 µM, more than 197 µM and more than 197 µM, respectively. For the same compound, the selectivity ratio in series [5] is 11300. In series [6], this compound gave a 50% inhibitory concentration (IC50) of 0.046 µM. In series [4], the CC50 at 120 h came out at 197 µM.
Consider `O=c1[nH]cnc2c1ncn2[C@H]1CC[C@@H](CO)O1` [DIDANOSINE], for which the selectivity ratio in series [5] was more than 9. In addition, in series [4], the CC50 at 120 h is more than 212 µM.
Consider `Cc1cc(OCC(=O)Nc2ccc(C#N)cc2)nc(Nc2ccc(C#N)cc2)n1`, for which the half-maximal effective concentration (EC50) in series [1] and in series [3] was more than 325 µM in each case. The 50% cytotoxic concentration (CC50) at 120 h in series [4] was more than 325 µM.
In the case of `CC(C)Nc1cccnc1N1CCN(C(=O)c2cc3cc(NS(C)(=O)=O)ccc3[nH]2)CC1` [DELAVIRDINE], the EC50 is 0.65 µM in series [1] and more than 43.8 µM in series [2]. The selectivity ratio in series [5] was more than 67. In series [4], the 50% cytotoxic concentration (CC50) at 120 h is more than 43.8 µM.
Take `Cc1cn([C@H]2C[C@H](N=[N+]=[N-])[C@@H](CO)O2)c(=O)[nH]c1=O` [ZIDOVUDINE]: the EC50 in series [2] came out at 0.01 µM; in series [3], 0.0066 µM. Moreover, the CC50 at 120 h in series [4] is more than 93.5 µM.
Turning to `Cc1cnc(Nc2ccc(C#N)cc2)nc1OCC(=O)Nc1ccc([N+](=O)[O-])cc1`, the half-maximal effective concentration (EC50) in series [1], in series [2] and in series [3] was more than 66.3 µM each time. Besides, in series [5], the selectivity ratio was less than 1. The compound further returned a CC50 at 120 h in series [4] of 66.3 µM.
On to `Cc1ccnc2c1NC(=O)c1cccnc1N2C1CC1` [NEVIRAPINE], for which the 50% effective concentration (EC50) in series [2] was not below 7.59 µM. Moreover, in series [4], the cytotoxic concentration (CC50) at 120 h is more than 15 µM.
Consider `O=C1Nc2ccc(Cl)cc2[C@@](C#CC2CC2)(C(F)(F)F)O1` [EFAVIRENZ], for which the EC50 in series [1] was determined as 0.0062 µM. This compound showed a 50% cytotoxic concentration (CC50) at 120 h in series [4] of more than 6.34 µM.

The values above are taken from ChEMBL document CHEMBL3396972, “Synthesis and biological evaluation of DAPY-DPEs hybrids as non-nucleoside inhibitors of HIV-1 reverse transcriptase” (Bioorg Med Chem, 2015).
